Results on 5 compounds are retold here after ChEMBL document CHEMBL1201862, “PubChem BioAssay data set” (2004).

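Cells were grown in 96-well plates and exposed to each compound for 48 hours at five concentrations; endpoints were interpolated linearly between bracketing concentrations, or set to the highest concentration if not reached. GI50: concentration for 50% inhibition of growth.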 Active and inactive are the calls of the source. Cut-off read from the data, not from the text of the source: active = GI50 up to about 1.1 µM and inactive = higher. Non-standard residues stand in square brackets, D forms with d. Residues, ends and D or L forms follow the SMILES beside them. ξ: configuration not given here. *: point of attachment. NMeF = CN[C@@H](Cc1ccccc1)C(=O)O; NMeN = CN[C@@H](CC(N)=O)C(=O)O; NMeV = CN[C@H](C(=O)O)C(C)C; ξNMeV = CNC(C(=O)O)C(C)C; Boc = CC(C)(C)OC(=O)*; ξNMeA = CNC(C)C(=O)O; ξV = CC(C)C(N)C(=O)O A value given as a limit tells only on which side of the number the result lay.

Among the test systems are SNB-19; A498; ACHN; LOX IMVI; DLD-1; CAKI-1; Hs-578T; HCT-15; MDA-MB-231; RPMI-8226; NCI-H522; HOP-62; BT-549; IGROV-1; HCT-116; 786-0; OVCAR-5; U-251; CCRF-CEM; T47D.
Common to all, as to test: NCI tumour cell line growth inhibition, 48 h

Take `Cc1cc2c(c3oc(C(O)(CO)C4CO4)cc(=O)c13)C(=O)c1c(O)cccc1C2=O` (stereo unspecified): the GI50 is 0.00119 µM (active) in the assay with SNB-19; 0.00212 µM (active) with A498; 0.000278 µM (active) in the assay with ACHN; 0.000356 µM (active) in the assay with LOX IMVI; < 0.01 µM (active) with DLD-1; 0.000463 µM (active) in the assay on CAKI-1. For the same compound, the GI50 was 0.00436 µM (active) in the assay on Hs-578T; 0.000887 µM with HCT-15; 0.00213 µM (active) in the assay with MDA-MB-231; 0.000313 µM (active) in the assay with RPMI-8226; 0.0012 µM (active) in the assay with NCI-H522; 0.00147 µM (active) with HOP-62. The GI50 in the assay on BT-549 is 0.00296 µM (active); in the assay on IGROV-1 it was 0.000266 µM (active); in the assay with HCT-116, 0.000363 µM (active); with 786-0, 0.000439 µM (active); with OVCAR-5, 0.00229 µM (active); in the assay with U-251, 0.000826 µM (active). The GI50 in the assay on CCRF-CEM was 4.14e-05 µM (active); with T47D it was 0.00163 µM (active).
On to `Cc1cc(NC(=O)NC(=O)c2ccccc2[N+](=O)[O-])ccc1Oc1ncc(Cl)cn1`, for which the GI50 in the assay with SNB-19 is 0.212 µM (active); in the assay on A498, 0.0604 µM (active); in the assay on ACHN it was 1.88 µM (inactive); with LOX IMVI it was 0.133 µM (active); in the assay with DLD-1, 0.0783 µM (active); with Hs-578T it was 0.0257 µM (active). In addition, the GI50 in the assay on HCT-15 is 0.113 µM; in the assay on MDA-MB-231, 0.664 µM (active); with RPMI-8226 it was 0.223 µM (active); in the assay with NCI-H522 it was 0.0402 µM (active); with HOP-62, 0.0581 µM (active); with BT-549 it was 29.4 µM (inactive). The GI50 in the assay with IGROV-1 is 0.51 µM (active); in the assay with HCT-116 it was 0.082 µM (active); in the assay on 786-0 it was 0.0671 µM (active); in the assay on OVCAR-5 it was 16.5 µM (inactive); in the assay on U-251, 0.0916 µM (active); with CCRF-CEM, 0.0552 µM (active). For the same compound, the GI50 in the assay on T47D was 34.1 µM (inactive).
As to `CCCCOC(=O)C1C2CCC(O2)C1C(=O)OCCCC` (stereo unspecified), the GI50 is > 100 µM (inactive) in the assay with SNB-19; > 100 µM (inactive) with A498; > 100 µM (inactive) in the assay on ACHN; > 44.8 µM (inactive) with LOX IMVI; > 53.7 µM (inactive) in the assay with DLD-1; > 100 µM (inactive) with CAKI-1. Also, the GI50 in the assay with HCT-15 is > 65.2 µM; in the assay with RPMI-8226, > 49.9 µM (inactive); with NCI-H522, > 100 µM (inactive); in the assay on HOP-62 it was > 100 µM (inactive); with IGROV-1 it was > 100 µM (inactive); in the assay on HCT-116 it was > 45.6 µM (inactive). Besides, the GI50 in the assay with 786-0 was > 44.8 µM (inactive); with OVCAR-5 it was > 89.9 µM (inactive); with U-251, > 65.6 µM (inactive); with CCRF-CEM, > 100 µM (inactive).
Regarding `CCOc1ccc(/N=C/c2ccc3ccccc3n2)cc1`, the GI50 with SNB-19 was > 100 µM (inactive); in the assay with A498, > 100 µM (inactive); with ACHN, > 100 µM (inactive); with LOX IMVI it was > 73.5 µM (inactive); with DLD-1 it was > 100 µM (inactive); in the assay with CAKI-1, > 100 µM (inactive). For the same compound, the GI50 was > 100 µM with HCT-15; > 87.1 µM (inactive) in the assay with RPMI-8226; > 100 µM (inactive) in the assay on NCI-H522; > 100 µM (inactive) with HOP-62; > 100 µM (inactive) with IGROV-1; > 100 µM (inactive) in the assay on HCT-116. Further, the GI50 was > 100 µM (inactive) with 786-0, > 100 µM (inactive) with OVCAR-5, > 100 µM (inactive) with U-251 and 35.7 µM (inactive) in the assay with CCRF-CEM.
On to `COC(=O)C(C)N(C)C(=O)[C@H](CC(N)=O)N(C)C(=O)[C@@H]1CCCN1C(=O)[C@H](C(C)C)N(C)C(=O)C(C(C)C)N(C)C(=O)[C@H](Cc1ccccc1)N(C)C(=O)C(NC(=O)OC(C)(C)C)C(C)C` (stereo partly specified) (Boc-[ξV][NMeF][ξNMeV][NMeV]P[NMeN][ξNMeA]-OMe), for which the GI50 is 19.7 µM (inactive) with SNB-19; 44.4 µM (inactive) with A498; > 50 µM (inactive) in the assay on ACHN; 9.44 µM (inactive) in the assay on LOX IMVI; 17.8 µM (inactive) in the assay with DLD-1; > 50 µM (inactive) in the assay on CAKI-1. The GI50 in the assay on Hs-578T was 10.8 µM (inactive); with HCT-15, 22 µM; in the assay with MDA-MB-231 it was 16.3 µM (inactive); in the assay with RPMI-8226 it was 12.4 µM (inactive); in the assay with NCI-H522, 17.5 µM (inactive); in the assay on HOP-62 it was 11.5 µM (inactive). For the same compound, the GI50 in the assay with BT-549 was 12.1 µM (inactive); in the assay with IGROV-1 it was 22.4 µM (inactive); in the assay on HCT-116 it was 16.3 µM (inactive); in the assay on 786-0 it was 17.6 µM (inactive); with OVCAR-5, > 50 µM (inactive); in the assay on U-251 it was 11.2 µM (inactive). In addition, the GI50 in the assay with CCRF-CEM was 24 µM (inactive); with T47D, 19.5 µM (inactive).
